The values that follow come from patent US8106055B2, “Substituted amide compounds” (Gruenenthal GmbH, priority 2007, dated 2012).

The assay deals with T1, human bradykinin 1 receptor (B1R) (Homo sapiens, UniProt P46663).
T1 construct: expressed in transfected cells; host or cells: CHO K1 cells
T1 sequence (P46663 1-353): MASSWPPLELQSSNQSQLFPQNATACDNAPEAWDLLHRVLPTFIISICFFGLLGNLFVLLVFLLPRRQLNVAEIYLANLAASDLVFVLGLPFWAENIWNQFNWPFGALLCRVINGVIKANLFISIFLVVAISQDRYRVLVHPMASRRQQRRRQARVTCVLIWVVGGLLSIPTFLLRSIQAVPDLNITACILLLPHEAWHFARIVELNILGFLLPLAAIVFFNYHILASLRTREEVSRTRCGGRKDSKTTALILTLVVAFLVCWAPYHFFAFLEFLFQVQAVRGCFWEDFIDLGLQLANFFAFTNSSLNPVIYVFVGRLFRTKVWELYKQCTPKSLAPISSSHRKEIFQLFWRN
Put plainly: Functional investigation on the human bradykinin 1 receptor (B1R), Ca2+ FLIPR assay in CHO K1 hB1R cells. The class given is cell-based. The note with it: B1R antagonism human; test substance 10 μM; Ca2+ FLIPR, CHO K1 hB1R cells. The gist of the method: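 Stably transfected CHO K1 cells loaded with Fluo-4; FLIPR Ca2+ fluorescence peak (ex 488/em 540 nm). Compound added first (agonism vs Lys-Des-Arg9-bradykinin ≥50 nM human, Des-Arg9-bradykinin 10 μM rat), then after 10-20 min agonist at EC80; antagonism as % inhibition, IC50 from concentration series, n=2-3, N≥2.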
For the compound `CN(C)C(c1cccc(F)c1)C1CCC(CCNC(=O)COC2CCN(S(=O)(=O)c3ccccc3)CC2)CC1` (centres unmarked) [Example 444], the “B1R Ant. h [10 μM] % Inhibition” value is on record as −20%. On to `COc1cc(C)c(S(=O)(=O)N2CCN(CCOCC(=O)NCCC3CCC(C(c4ccc(F)cc4)N(C)C)CC3)CC2)c(C)c1C` (centres unmarked) [Example 387], for which the “B1R Ant. h [10 μM] % Inhibition” value stood at 75%. As to `COc1ccc(S(=O)(=O)N2CCC(OCC(=O)NCCC3CCC(C(c4ccc(F)cc4)N(C)C)CC3)C2)cc1OC` (centres unmarked) [Example 430], the “B1R Ant. h [10 μM] % Inhibition” value is reported as −7%.

Take `COc1ccc(S(=O)(=O)N2CCCCC2CCOCC(=O)NCCC2CCC(C(c3ccc(Cl)cc3)N(C)C)CC2)cc1` (centres unmarked) [Example 383]: the “B1R Ant. h [10 μM] % Inhibition” value is given as 77%.

As to `CN(C)C(c1ccc(F)cc1)C1CCC(CCNC(=O)COCCN(C)S(=O)(=O)c2ccc(OC(F)(F)F)cc2)CC1` (centres unmarked) [Example 446], the “B1R Ant. h [10 μM] % Inhibition” value is 19%.

Consider `CN(C)C(c1ccc(F)cc1)C1CCC(CNC(=O)COCCN(C)S(=O)(=O)c2ccc(OC(F)(F)F)cc2)CC1` (centres unmarked) [Example 439], for which the “B1R Ant. h [10 μM] % Inhibition” value came out at 44%.

On to `Cc1cc(C)c(S(=O)(=O)N2CCC(OCC(=O)NCC3CCC(C(c4ccc(Cl)cc4)N(C)C)CC3)C2)c(C)c1` (centres unmarked) [Example 393], for which the “B1R Ant. h [10 μM] % Inhibition” value was determined as 97%.

For `CN(C)C(c1ccc(F)cc1)C1CCC(CCNC(=O)COCCN(C)S(=O)(=O)c2cccc(C(F)(F)F)c2)CC1` (centres unmarked) [Example 368], the “B1R Ant. h [10 μM] % Inhibition” value amounted to 39%. For the compound `Cc1cc(C)c(S(=O)(=O)N(C)CCOCC(=O)NCCC2CCC(C(c3ccc(Cl)cc3)N(C)C)CC2)c(C)c1` (centres unmarked) [Example 416], the “B1R Ant. h [10 μM] % Inhibition” value was 104%.

For `CN(C)C(c1ccc(Cl)cc1)C1CCC(CNC(=O)COCCN(C)S(=O)(=O)c2ccc(OC(F)(F)F)cc2)CC1` (centres unmarked) [Example 411], the “B1R Ant. h [10 μM] % Inhibition” value is 41%. Next, `CN(C)C(CCc1ccccc1)C1CCC(CNC(=O)COCC2CCCN2S(=O)(=O)c2ccc(Cl)c(Cl)c2)CC1` (centres unmarked) [Example 415]: 96%. For the compound `COc1cc(C)c(S(=O)(=O)N(CCOCC(=O)NCC2CCC(C(c3cccc(F)c3)N(C)C)CC2)Cc2ccccc2)c(C)c1C` (centres unmarked) [Example 414], the “B1R Ant. h [10 μM] % Inhibition” value is on record as 28%. Next, `CN(C)C(c1ccc(F)cc1)C1CCC(NC(=O)COCCN(C)S(=O)(=O)c2c(Cl)cccc2Cl)CC1` (centres unmarked) [Example 363]: 80%; `Cc1ccc(S(=O)(=O)N2CCC(OCC(=O)NC3CCC(C(c4ccc(F)cc4)N(C)C)CC3)C2)cc1` (centres unmarked) [Example 371]: 7%; `CN(C)C(c1ccc(Cl)cc1)C1CCC(CCNC(=O)COCCN(C)S(=O)(=O)c2c(Cl)cc(Cl)cc2Cl)CC1` (centres unmarked) [Example 442]: 84%. Take `COc1cc(C)c(S(=O)(=O)N(CCOCC(=O)NC2CCC(C(c3cccc(F)c3)N(C)C)CC2)Cc2ccccc2)c(C)c1` (centres unmarked) [Example 372]: the “B1R Ant. h [10 μM] % Inhibition” value is given as 65%. Turning to `CN(C)C(c1ccc(F)cc1)C1CCC(CNC(=O)COC2CCN(S(=O)(=O)c3ccc(Cl)cc3Cl)C2)CC1` (centres unmarked) [Example 391], the “B1R Ant. h [10 μM] % Inhibition” value was 71%.

Take `CN(C)C(c1ccc(Cl)cc1)C1CCC(CCNC(=O)COCC2CCCN(S(=O)(=O)c3ccccc3)C2)CC1` (centres unmarked) [Example 425]: the “B1R Ant. h [10 μM] % Inhibition” value is on record as 12%.

As for `COc1cc(C)c(S(=O)(=O)N2CCC(CCOCC(=O)NCCC3CCC(C(c4cccc(F)c4)N(C)C)CC3)CC2)c(C)c1C` (centres unmarked) [Example 397], the “B1R Ant. h [10 μM] % Inhibition” value was 2%. With `CN(C)C(c1cccc(F)c1)C1CCC(NC(=O)COCCN2CCN(S(=O)(=O)c3ccccc3)CC2)CC1` (centres unmarked) [Example 364], the “B1R Ant. h [10 μM] % Inhibition” value is listed as 0%. Next, `CN(C)C(c1ccc(Cl)cc1)C1CCC(CCNC(=O)COC2CCCCC2N(C)S(=O)(=O)c2ccc(Cl)c(Cl)c2)CC1` (centres unmarked) [Example 410]: 1%; `COc1ccc(S(=O)(=O)N(C)CCOCC(=O)NC2CCC(C(c3cccc(F)c3)N(C)C)CC2)cc1OC` (centres unmarked) [Example 401]: −19%; `CN(C)C(c1ccc(F)cc1)C1CCC(NC(=O)COCCN(C)S(=O)(=O)c2cccc(C(F)(F)F)c2)CC1` (centres unmarked) [Example 438]: 9%.

Turning to `Cc1ccc(S(=O)(=O)N(C)CCOCC(=O)NC2CCC(C(c3ccc(F)cc3)N(C)C)CC2)cc1` (centres unmarked) [Example 448], the “B1R Ant. h [10 μM] % Inhibition” value was 0%.

As to `CN(C)C(c1ccc(F)cc1)C1CCC(CCNC(=O)COCCN(C)S(=O)(=O)c2c(Cl)cc(Cl)cc2Cl)CC1` (centres unmarked) [Example 386], the “B1R Ant. h [10 μM] % Inhibition” value came to 104%. For `CCN(CCOCC(=O)NC1CCC(C(c2ccc(F)cc2)N(C)C)CC1)S(=O)(=O)c1c(C)cc(OC)c(C)c1C` (centres unmarked) [Example 396], the “B1R Ant. h [10 μM] % Inhibition” value is 70%.

As for `CN(C)C(c1ccc(Cl)cc1)C1CCC(CCNC(=O)COC2CCN(S(=O)(=O)c3ccccc3)C2)CC1` (centres unmarked) [Example 375], the “B1R Ant. h [10 μM] % Inhibition” value came out at 2%.

On to `CN(C)C(c1ccc(F)cc1)C1CCC(NC(=O)COC2CCN(S(=O)(=O)c3ccc(Cl)cc3)C2)CC1` (centres unmarked) [Example 370], for which the “B1R Ant. h [10 μM] % Inhibition” value is on record as −14%. Regarding `COc1cc(C)c(S(=O)(=O)N2CCCC(OCC(=O)NCC3CCC(C(c4ccc(Cl)cc4)N(C)C)CC3)C2)c(C)c1C` (centres unmarked) [Example 449], the “B1R Ant. h [10 μM] % Inhibition” value turned out to be 25%. For `CN(C)C(c1cccc(F)c1)C1CCC(CCNC(=O)COC2CCN(S(=O)(=O)c3ccc(F)cc3)C2)CC1` (centres unmarked) [Example 407], the “B1R Ant. h [10 μM] % Inhibition” value is 4%. For the compound `COc1cc(C)c(S(=O)(=O)N2CCCC(OCC(=O)NCC3CCC(C(c4ccc(F)cc4)N(C)C)CC3)C2)c(C)c1C` (centres unmarked) [Example 418], the “B1R Ant. h [10 μM] % Inhibition” value is reported as 53%. Next, `COc1cc(C)c(S(=O)(=O)N(C)CCOCC(=O)NCCC2CCC(C(c3ccc(Cl)cc3)N(C)C)CC2)c(C)c1` (centres unmarked) [Example 378]: 104%.

Turning to `COc1cc(C)c(S(=O)(=O)N2CCCC(OCC(=O)NC3CCC(C(c4ccc(F)cc4)N(C)C)CC3)C2)c(C)c1C` (centres unmarked) [Example 435], the “B1R Ant. h [10 μM] % Inhibition” value is 15%. With `CN(C)C(c1ccc(Cl)cc1)C1CCC(CNC(=O)COC2CCN(S(=O)(=O)c3ccc(Cl)cc3)C2)CC1` (centres unmarked) [Example 384], the “B1R Ant. h [10 μM] % Inhibition” value is 31%. For `COc1cc(C)c(S(=O)(=O)N2CCC(OCC(=O)NC3CCC(C(c4ccc(F)cc4)N(C)C)CC3)C2)c(C)c1C` (centres unmarked) [Example 365], the “B1R Ant. h [10 μM] % Inhibition” value is on record as 48%. `COc1ccc(S(=O)(=O)N2CCCCC2CCOCC(=O)NCCC2CCC(C(c3ccc(F)cc3)N(C)C)CC2)cc1` (centres unmarked) [Example 398]: the “B1R Ant. h [10 μM] % Inhibition” value amounted to 80%.

In the case of `CCN(CCOCC(=O)NCCC1CCC(C(c2ccc(Cl)cc2)N(C)C)CC1)S(=O)(=O)c1c(C)cc(OC)c(C)c1C` (centres unmarked) [Example 434], the “B1R Ant. h [10 μM] % Inhibition” value is given as 47%. Next, `COc1cc(C)c(S(=O)(=O)N2CCN(CCOCC(=O)NCC3CCC(C(c4ccc(Cl)cc4)N(C)C)CC3)CC2)c(C)c1C` (centres unmarked) [Example 429]: 75%. Regarding `CN(C)C(c1ccc(F)cc1)C1CCC(CNC(=O)COCCN2CCN(S(=O)(=O)c3ccccc3)CC2)CC1` (centres unmarked) [Example 433], the “B1R Ant. h [10 μM] % Inhibition” value is reported as −4%.

For `COc1cc(C)c(S(=O)(=O)N2CCC(OCC(=O)NCCC3CCC(C(c4ccc(Cl)cc4)N(C)C)CC3)C2)c(C)c1C` (centres unmarked) [Example 412], the “B1R Ant. h [10 μM] % Inhibition” value is given as 40%. To `CN(C)C(c1ccc(F)cc1)C1CCC(CNC(=O)COC2CCN(S(=O)(=O)c3cccc(C(F)(F)F)c3)C2)CC1` (centres unmarked) [Example 402] belongs 0%.
